This assay concerns the target T1, human TLR8 (Homo sapiens, UniProt Q9NR97).
T1 sequence (Q9NR97 27-1041): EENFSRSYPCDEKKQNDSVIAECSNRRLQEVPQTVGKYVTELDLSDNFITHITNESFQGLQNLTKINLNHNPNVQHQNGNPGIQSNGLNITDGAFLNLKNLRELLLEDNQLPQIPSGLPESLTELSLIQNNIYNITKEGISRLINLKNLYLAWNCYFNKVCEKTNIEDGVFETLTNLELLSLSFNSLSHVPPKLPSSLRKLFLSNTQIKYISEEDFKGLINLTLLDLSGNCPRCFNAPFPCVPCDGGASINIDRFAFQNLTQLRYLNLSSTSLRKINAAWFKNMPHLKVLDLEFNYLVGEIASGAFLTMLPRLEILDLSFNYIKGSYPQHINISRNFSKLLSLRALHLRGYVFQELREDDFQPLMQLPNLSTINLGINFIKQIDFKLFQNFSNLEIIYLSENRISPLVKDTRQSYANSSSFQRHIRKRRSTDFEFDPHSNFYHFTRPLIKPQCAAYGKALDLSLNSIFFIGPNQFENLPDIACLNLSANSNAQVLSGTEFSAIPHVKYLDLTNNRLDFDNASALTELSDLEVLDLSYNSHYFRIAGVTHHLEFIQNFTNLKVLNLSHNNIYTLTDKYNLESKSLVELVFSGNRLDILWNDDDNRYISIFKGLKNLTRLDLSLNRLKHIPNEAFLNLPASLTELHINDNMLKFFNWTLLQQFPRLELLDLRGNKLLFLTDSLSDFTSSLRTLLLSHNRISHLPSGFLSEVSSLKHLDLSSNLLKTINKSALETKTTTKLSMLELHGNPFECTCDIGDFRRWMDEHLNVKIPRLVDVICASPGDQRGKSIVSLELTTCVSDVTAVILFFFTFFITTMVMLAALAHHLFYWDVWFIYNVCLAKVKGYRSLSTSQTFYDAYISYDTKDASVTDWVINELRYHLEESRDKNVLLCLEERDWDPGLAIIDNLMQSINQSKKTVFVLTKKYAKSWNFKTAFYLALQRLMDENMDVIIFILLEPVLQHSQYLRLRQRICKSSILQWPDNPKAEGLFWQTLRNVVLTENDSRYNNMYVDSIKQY
Put plainly: HEK293-Blue-hTLR-8 cells assay (SEAP reporter, R848 stimulation). It counts as cell-based. To be noted: HEK293-Blue-hTLR8 cells, R848 ligand, 20 hrs incubation. The source says: A stable HEK293-Blue-hTLR-8 cell line was purchased from InvivoGen (Cat. #: hkb-htlr8, San Diego, Calif., USA). These cells were originally designed for studying the stimulation of human TLR8 by monitoring the activation of NF-κB. A SEAP (secreted embryonic alkaline phosphatase) reporter gene was placed under the control of the IFN-β minimal promoter fused to five NF-κB and AP-1-binding sites. The SEAP was induced by activating NF-κB and AP-1 via stimulating HEK-Blue hTLR8 cells with TLR8 ligands. Therefore the reporter expression was declined by TLR8 antagonist under the stimulation of a ligand, such as R848, for incubation of 20 hrs. The cell culture supernatant SEAP reporter activity was determined using QUANTI-Blue™ kit (Cat. #: rep-qb1, Invivogen, San Diego, Ca, USA) at a wavelength of 640 nm, a detection medium that turns purple or blue in the presence of alkaline phosphatase.
HEK293-Blue-hTLR8 cells were incubated at a density of 250,000˜450,000 cells/mL in a volume of 170 μL in a 96-well plate in Dulbecco's Modified Eagle's medium (DMEM) containing 4.5 g/L glucose, 50 U/mL penicillin, […], […], 2 mM L-glutamine, 10% (v/v) heat-inactivated fetal bovine serum with addition of 20 μL test compound in a serial dilution in the presence of final DMSO at 1% and 10 μL of 60 uM R848 in above DMEM, perform incubation under 37° C. in a CO2 incubator for 20 hrs. Then 20 μL of the supernatant from each well was incubated with 180 μL Quanti-blue substrate solution at 37° C. for 2 hrs and the absorbance was read at 620˜655 nm using a spectrophotometer. The signalling pathway that TLR8 activation leads to downstream NF-κB activation has been widely accepted, and therefore similar reporter assay was modified for evaluating TLR8 antagonist.
As for `C[C@@H]1CN(c2ccc(C#N)n3nccc23)C[C@H](CN2CCC(C)(N)CC2)O1` [Example 29, 4-[(2S,6R)-2-[(4-amino-4-methyl-1-piperidyl)methyl]-6-methyl-morpholin-4-yl]pyrazolo[1,5-a]pyridine-7-carbonitrile], the IC50 amounted to 52 nM. Turning to `C[C@@H]1CN(c2ccc(C#N)n3nccc23)C[C@H](CN2C[C@H]3CC[C@@H](N(C)C)[C@H]3C2)O1` (racemic) [Example 75, 4-[(2S,6R)-2-[[4-(dimethylamino)-3,3a,4,5,6,6a-hexahydro-1H-cyclopenta[c]pyrrol-2-yl]methyl]-6-methyl-morpholin-4-yl]pyrazolo[1,5-a]pyridine-7-carbonitrile], the IC50 was determined as 600 nM. As for `C[C@@H]1CN(c2ccc(C#N)n3nccc23)C[C@H](CN2CCNCC2)O1` [Example 5, 4-[(2R,6S)-2-methyl-6-(piperazin-1-ylmethyl)morpholin-4-yl]pyrazolo[1,5-a]pyridine-7-carbonitrile], the figure is 78 nM; as for `C[C@@H]1CN(c2ccc(C#N)n3nccc23)C[C@H](CN2CCC3NCC3C2)O1` (stereo partly drawn) [Example 70, 4-[(2S,6R)-2-(3,7-diazabicyclo[4.2.0]octan-3-ylmethyl)-6-methyl-morpholin-4-yl]pyrazolo[1,5-a]pyridine-7-carbonitrile], 120 nM. Then `C[C@@H]1CN(c2ccc(C#N)n3nccc23)C[C@H](CN2C3CCC2CC(N)C3)O1` (stereo partly drawn) [Example 37, 4-[(2S,6R)-2-[(3-amino-8-azabicyclo[3.2.1]octan-8-yl)methyl]-6-methyl-morpholin-4-yl]pyrazolo[1,5-a]pyridine-7-carbonitrile], with 45 nM; and `C[C@@H]1CN(c2ccc(C#N)n3nccc23)C[C@H](CN2CCC(N3CCNCC3)CC2)O1` [Example 39, 4-[(2R,6S)-2-methyl-6-[(4-piperazin-1-yl-1-piperidyl)methyl]morpholin-4-yl]pyrazolo[1,5-a]pyridine-7-carbonitrile], with 180 nM; and `C[C@@H]1CN(c2ccc(C#N)n3nccc23)C[C@H](CN2CCC(CN)CC2)O1` [Example 12, 4-[(2S,6R)-2-[[4-(aminomethyl)-1-piperidyl]methyl]-6-methyl-morpholin-4-yl]pyrazolo[1,5-a]pyridine-7-carbonitrile], with 280 nM. As for `C[C@@H]1CN(c2ccc(C#N)n3nccc23)C[C@H](CN2CCC(N3CCCC3)CC2)O1` [Example 54, 4-[(2R,6S)-2-methyl-6-[(4-pyrrolidin-1-yl-1-piperidyl)methyl]morpholin-4-yl]pyrazolo[1,5-a]pyridine-7-carbonitrile], the figure is 42 nM. As for `C[C@@H]1CN(c2ccc(C#N)n3nccc23)C[C@H](CN2CC3(CC(N)C3)C2)O1` [Example 11, 4-[(2S,6R)-2-[(6-amino-2-azaspiro[3.3]heptan-2-yl)methyl]-6-methyl-morpholin-4-yl]pyrazolo[1,5-a]pyridine-7-carbonitrile], the half-maximal inhibitory concentration (IC50) is 930 nM.

In the case of `C[C@@H]1CN(c2ccc(C#N)n3nccc23)C[C@H](CN2CCC[C@@H]3NCCC32)O1` (stereo partly drawn) [Example 63, 4-[(2R,6S)-2-methyl-6-[[cis-(3aS,7aS)-1,2,3,3a,5,6,7,7a-octahydropyrrolo[3,2-b]pyridin-4-yl]methyl]morpholin-4-yl]pyrazolo[1,5-a]pyridine-7-carbonitrile], the half-inhibitory concentration (IC50) is 44 nM. This IC50 is about 21-fold lower than that of the compound before. In turn, `C[C@@H]1CN(c2ccc(C#N)n3nccc23)C[C@H](CN2CCC(N3CCCCC3)CC2)O1` [Example 16, 4-[(2R,6S)-2-methyl-6-[[4-(1-piperidyl)-1-piperidyl]methyl]morpholin-4-yl]pyrazolo[1,5-a]pyridine-7-carbonitrile] registered an IC50 of 19 nM. Then `C[C@@H]1CN(c2ccc(C#N)n3nccc23)C[C@H](CN2CCCC3(CNC3)C2)O1` [Example 33, 4-[(2S,6R)-2-(2,6-diazaspiro[3.5]nonan-6-ylmethyl)-6-methyl-morpholin-4-yl]pyrazolo[1,5-a]pyridine-7-carbonitrile], with 54 nM.

On to `C[C@@H]1CN(c2ccc(C#N)n3nccc23)C[C@H](CN2CCC3(CCCCN3)C2)O1` (stereo partly drawn) [Example 42, 4-[(2S,6R)-2-(2,6-diazaspiro[4.5]decan-2-ylmethyl)-6-methyl-morpholin-4-yl]pyrazolo[1,5-a]pyridine-7-carbonitrile], for which the IC50 is 65 nM. The IC50 values of the last two compounds are within 1.5-fold of each other. As for `C[C@@H]1CN(c2ccc(C#N)n3nccc23)C[C@H](CN2CCOC3(CCNCC3)C2)O1` [Example 71, 4-[(2R,6S)-2-methyl-6-(1-oxa-4,9-diazaspiro[5.5]undecan-4-ylmethyl)morpholin-4-yl]pyrazolo[1,5-a]pyridine-7-carbonitrile], the figure is 55 nM; as for `C[C@@H]1CN(c2ccc(C#N)n3nccc23)C[C@H](CN2CCC3(CC2)CNCCO3)O1` [Example 60, 4-[(2R,6S)-2-methyl-6-(1-oxa-4,9-diazaspiro[5.5]undecan-9-ylmethyl)morpholin-4-yl]pyrazolo[1,5-a]pyridine-7-carbonitrile], 96 nM; as for `C[C@@H]1CN(c2ccc(C#N)n3nccc23)C[C@H](CN2CCC3(CCCNC3)CC2)O1` [Example 27, 4-[(2S,6R)-2-(2,9-diazaspiro[5.5]undecan-9-ylmethyl)-6-methyl-morpholin-4-yl]pyrazolo[1,5-a]pyridine-7-carbonitrile], 190 nM. As for `C[C@@H]1CN(c2ccc(C#N)n3nccc23)C[C@H](CN2CC3(CCCNCC3)C2)O1` [Example 46, 4-[(2S,6R)-2-(2,8-diazaspiro[3.6]decan-2-ylmethyl)-6-methyl-morpholin-4-yl]pyrazolo[1,5-a]pyridine-7-carbonitrile], the figure is 150 nM; as for `C[C@@H]1CN(c2ccc(C#N)n3ncc(F)c23)C[C@H](CN2CCC3(CCCNC3)C2)O1` (stereo partly drawn) [Example 69, 3-fluoro-4-[(2S,6R)-2-(2,9-diazaspiro[4.5]decan-2-ylmethyl)-6-methyl-morpholin-4-yl]pyrazolo[1,5-a]pyridine-7-carbonitrile], 26 nM; as for `C[C@@H]1CN(c2ccc(C#N)n3nccc23)C[C@H](CN2CCC3(CCN3)CC2)O1` [Example 48, 4-[(2S,6R)-2-(1,7-diazaspiro[3.5]nonan-7-ylmethyl)-6-methyl-morpholin-4-yl]pyrazolo[1,5-a]pyridine-7-carbonitrile], 110 nM.

In turn, `C[C@@H]1CN(c2ccc(C#N)n3nccc23)C[C@H](CN2CCC3(CCCCN3)CC2)O1` [Example 47, 4-[(2S,6R)-2-(1,9-diazaspiro[5.5]undecan-9-ylmethyl)-6-methyl-morpholin-4-yl]pyrazolo[1,5-a]pyridine-7-carbonitrile] gave an IC50 of 31 nM. In turn, `C[C@@H]1CN(c2ccc(C#N)n3nccc23)C[C@H](CN2CC3CNCC3C2)O1` (stereo partly drawn) [Example 22, 4-[(2S,6R)-2-(2,3,3a,4,6,6a-hexahydro-1H-pyrrolo[3,4-c]pyrrol-5-ylmethyl)-6-methyl-morpholin-4-yl]pyrazolo[1,5-a]pyridine-7-carbonitrile] came in with a 50% inhibitory concentration (IC50) of 69 nM. Then `C[C@@H]1CN(c2ccc(C#N)n3nccc23)C[C@H](CN2CCC3NCCC3C2)O1` (stereo partly drawn) [Example 41, 4-[(2S,6R)-2-(1,2,3,3a,4,6,7,7a-octahydropyrrolo[3,2-c]pyridin-5-ylmethyl)-6-methyl-morpholin-4-yl]pyrazolo[1,5-a]pyridine-7-carbonitrile], with 29 nM.

For orientation: IC50 means the concentration that inhibits the measured activity by half. A lower IC50 goes with inhibition by little substance.

The values above are taken from patent US20220112187A1, “PYRAZOLOPYRIDINE AMINE COMPOUNDS FOR THE TREATMENT OF AUTOIMMUNE DISEASE” (Hoffmann-La Roche Inc., priority 2018, published 2022).
